{
  "source": "the NIST ThermoML archive (doi:10.1021/je0501843)",
  "experiment": "molar heat capacity at constant volume",
  "settings": "Fluid (supercritical or subcritical phases), Vacuum adiabatic calorimetry",
  "note": "Several values for one entry are separate records, joined by “and”; a condition that tells them apart may be missing. Identical values can stand only once. Numbers after ± are expanded uncertainties.",
  "data": [
    {"smiles": "FC(F)C(F)(F)F", "note": "[pentafluoroethane]", "values": [
      {"measurement": "molar heat capacity at constant volume", "setting": "382 K, Mass density=585 kg/m3", "result": "117.04 ± 2.4", "unit": "J/K/mol"},
      {"measurement": "molar heat capacity at constant volume", "setting": "382 K, Mass density=687.5 kg/m3", "result": "116.38 ± 2.3", "unit": "J/K/mol"},
      {"measurement": "molar heat capacity at constant volume", "setting": "382 K, Mass density=772.5 kg/m3", "result": "113.59 ± 2.3", "unit": "J/K/mol"},
      {"measurement": "molar heat capacity at constant volume", "setting": "382 K, Mass density=880.7 kg/m3", "result": "113.14 ± 2.3", "unit": "J/K/mol"},
      {"measurement": "molar heat capacity at constant volume", "setting": "382 K, Mass density=972.5 kg/m3", "result": "113.55 ± 2.3 J/K/mol and 110.23 ± 2.2 J/K/mol"},
      {"measurement": "molar heat capacity at constant volume", "setting": "383 K, Mass density=403.3 kg/m3", "result": "116.83 ± 2.4", "unit": "J/K/mol"},
      {"measurement": "molar heat capacity at constant volume", "setting": "383 K, Mass density=502.6 kg/m3", "result": "115.94 ± 2.3", "unit": "J/K/mol"},
      {"measurement": "molar heat capacity at constant volume", "setting": "383 K, Mass density=585 kg/m3", "result": "116.44 ± 2.3", "unit": "J/K/mol"},
      {"measurement": "molar heat capacity at constant volume", "setting": "383 K, Mass density=687.4 kg/m3", "result": "115.8 ± 2.3", "unit": "J/K/mol"},
      {"measurement": "molar heat capacity at constant volume", "setting": "383 K, Mass density=772.4 kg/m3", "result": "112.32 ± 2.3", "unit": "J/K/mol"},
      {"measurement": "molar heat capacity at constant volume", "setting": "383 K, Mass density=880.7 kg/m3", "result": "112.41 ± 2.3", "unit": "J/K/mol"},
      {"measurement": "molar heat capacity at constant volume", "setting": "383 K, Mass density=972.4 kg/m3", "result": "107.88 ± 2.2 J/K/mol and 110.36 ± 2.2 J/K/mol"},
      {"measurement": "molar heat capacity at constant volume", "setting": "384 K, Mass density=403.3 kg/m3", "result": "115.53 ± 2.3", "unit": "J/K/mol"},
      {"measurement": "molar heat capacity at constant volume", "setting": "384 K, Mass density=502.6 kg/m3", "result": "114.75 ± 2.3", "unit": "J/K/mol"},
      {"measurement": "molar heat capacity at constant volume", "setting": "384 K, Mass density=585 kg/m3", "result": "115.28 ± 2.3", "unit": "J/K/mol"},
      {"measurement": "molar heat capacity at constant volume", "setting": "384 K, Mass density=687.4 kg/m3", "result": "113.97 ± 2.3", "unit": "J/K/mol"},
      {"measurement": "molar heat capacity at constant volume", "setting": "384 K, Mass density=772.4 kg/m3", "result": "111.67 ± 2.2", "unit": "J/K/mol"},
      {"measurement": "molar heat capacity at constant volume", "setting": "384 K, Mass density=880.6 kg/m3", "result": "112.26 ± 2.3", "unit": "J/K/mol"},
      {"measurement": "molar heat capacity at constant volume", "setting": "384 K, Mass density=972.3 kg/m3", "result": "108.78 ± 2.2 J/K/mol and 109.57 ± 2.2 J/K/mol"},
      {"measurement": "molar heat capacity at constant volume", "setting": "385 K, Mass density=403.2 kg/m3", "result": "109.7 ± 2.2", "unit": "J/K/mol"},
      {"measurement": "molar heat capacity at constant volume", "setting": "385 K, Mass density=502.5 kg/m3", "result": "112.54 ± 2.3", "unit": "J/K/mol"},
      {"measurement": "molar heat capacity at constant volume", "setting": "385 K, Mass density=584.9 kg/m3", "result": "115.82 ± 2.3", "unit": "J/K/mol"},
      {"measurement": "molar heat capacity at constant volume", "setting": "385 K, Mass density=687.4 kg/m3", "result": "113.72 ± 2.3", "unit": "J/K/mol"},
      {"measurement": "molar heat capacity at constant volume", "setting": "385 K, Mass density=772.3 kg/m3", "result": "112.59 ± 2.3", "unit": "J/K/mol"},
      {"measurement": "molar heat capacity at constant volume", "setting": "385 K, Mass density=880.6 kg/m3", "result": "111.79 ± 2.2", "unit": "J/K/mol"},
      {"measurement": "molar heat capacity at constant volume", "setting": "385 K, Mass density=972.3 kg/m3", "result": "110.01 ± 2.2 J/K/mol and 109.27 ± 2.2 J/K/mol"},
      {"measurement": "molar heat capacity at constant volume", "setting": "386 K, Mass density=403.2 kg/m3", "result": "109.65 ± 2.2", "unit": "J/K/mol"},
      {"measurement": "molar heat capacity at constant volume", "setting": "386 K, Mass density=502.5 kg/m3", "result": "114.07 ± 2.3", "unit": "J/K/mol"},
      {"measurement": "molar heat capacity at constant volume", "setting": "386 K, Mass density=584.9 kg/m3", "result": "117.48 ± 2.4", "unit": "J/K/mol"},
      {"measurement": "molar heat capacity at constant volume", "setting": "386 K, Mass density=687.3 kg/m3", "result": "115.04 ± 2.3", "unit": "J/K/mol"},
      {"measurement": "molar heat capacity at constant volume", "setting": "386 K, Mass density=772.3 kg/m3", "result": "114.08 ± 2.3", "unit": "J/K/mol"},
      {"measurement": "molar heat capacity at constant volume", "setting": "386 K, Mass density=880.5 kg/m3", "result": "113.14 ± 2.3", "unit": "J/K/mol"},
      {"measurement": "molar heat capacity at constant volume", "setting": "386 K, Mass density=972.2 kg/m3", "result": "111.04 ± 2.2 J/K/mol and 111.43 ± 2.2 J/K/mol"},
      {"measurement": "molar heat capacity at constant volume", "setting": "387 K, Mass density=403.2 kg/m3", "result": "111.98 ± 2.3", "unit": "J/K/mol"},
      {"measurement": "molar heat capacity at constant volume", "setting": "387 K, Mass density=502.5 kg/m3", "result": "114.1 ± 2.3", "unit": "J/K/mol"},
      {"measurement": "molar heat capacity at constant volume", "setting": "387 K, Mass density=584.9 kg/m3", "result": "115.44 ± 2.3", "unit": "J/K/mol"},
      {"measurement": "molar heat capacity at constant volume", "setting": "387 K, Mass density=687.3 kg/m3", "result": "115.22 ± 2.3", "unit": "J/K/mol"},
      {"measurement": "molar heat capacity at constant volume", "setting": "387 K, Mass density=772.2 kg/m3", "result": "113.77 ± 2.3", "unit": "J/K/mol"},
      {"measurement": "molar heat capacity at constant volume", "setting": "387 K, Mass density=880.4 kg/m3", "result": "113.04 ± 2.3", "unit": "J/K/mol"},
      {"measurement": "molar heat capacity at constant volume", "setting": "387 K, Mass density=972.1 kg/m3", "result": "109.68 ± 2.2 J/K/mol and 111.27 ± 2.2 J/K/mol"},
      {"measurement": "molar heat capacity at constant volume", "setting": "388 K, Mass density=403.2 kg/m3", "result": "113.46 ± 2.3", "unit": "J/K/mol"},
      {"measurement": "molar heat capacity at constant volume", "setting": "388 K, Mass density=502.5 kg/m3", "result": "111.2 ± 2.2", "unit": "J/K/mol"},
      {"measurement": "molar heat capacity at constant volume", "setting": "388 K, Mass density=584.8 kg/m3", "result": "114.82 ± 2.3", "unit": "J/K/mol"},
      {"measurement": "molar heat capacity at constant volume", "setting": "388 K, Mass density=687.2 kg/m3", "result": "114.32 ± 2.3", "unit": "J/K/mol"},
      {"measurement": "molar heat capacity at constant volume", "setting": "388 K, Mass density=772.2 kg/m3", "result": "113.36 ± 2.3", "unit": "J/K/mol"},
      {"measurement": "molar heat capacity at constant volume", "setting": "388 K, Mass density=880.4 kg/m3", "result": "110.83 ± 2.2", "unit": "J/K/mol"},
      {"measurement": "molar heat capacity at constant volume", "setting": "388 K, Mass density=972 kg/m3", "result": "109.02 ± 2.2 J/K/mol and 109.9 ± 2.2 J/K/mol"},
      {"measurement": "molar heat capacity at constant volume", "setting": "389 K, Mass density=403.2 kg/m3", "result": "112.17 ± 2.3", "unit": "J/K/mol"},
      {"measurement": "molar heat capacity at constant volume", "setting": "389 K, Mass density=502.4 kg/m3", "result": "110.52 ± 2.2", "unit": "J/K/mol"},
      {"measurement": "molar heat capacity at constant volume", "setting": "389 K, Mass density=584.8 kg/m3", "result": "116.36 ± 2.3", "unit": "J/K/mol"},
      {"measurement": "molar heat capacity at constant volume", "setting": "389 K, Mass density=687.2 kg/m3", "result": "114.28 ± 2.3", "unit": "J/K/mol"},
      {"measurement": "molar heat capacity at constant volume", "setting": "389 K, Mass density=772.1 kg/m3", "result": "114.22 ± 2.3", "unit": "J/K/mol"},
      {"measurement": "molar heat capacity at constant volume", "setting": "389 K, Mass density=880.3 kg/m3", "result": "112.08 ± 2.3", "unit": "J/K/mol"},
      {"measurement": "molar heat capacity at constant volume", "setting": "389 K, Mass density=972 kg/m3", "result": "110.08 ± 2.2 J/K/mol and 110.71 ± 2.2 J/K/mol"},
      {"measurement": "molar heat capacity at constant volume", "setting": "390 K, Mass density=403.1 kg/m3", "result": "112.23 ± 2.3", "unit": "J/K/mol"},
      {"measurement": "molar heat capacity at constant volume", "setting": "390 K, Mass density=502.4 kg/m3", "result": "112.47 ± 2.3", "unit": "J/K/mol"},
      {"measurement": "molar heat capacity at constant volume", "setting": "390 K, Mass density=584.8 kg/m3", "result": "115.03 ± 2.3", "unit": "J/K/mol"},
      {"measurement": "molar heat capacity at constant volume", "setting": "390 K, Mass density=687.2 kg/m3", "result": "115.41 ± 2.3", "unit": "J/K/mol"},
      {"measurement": "molar heat capacity at constant volume", "setting": "390 K, Mass density=772.1 kg/m3", "result": "115.46 ± 2.3", "unit": "J/K/mol"},
      {"measurement": "molar heat capacity at constant volume", "setting": "390 K, Mass density=880.2 kg/m3", "result": "113.85 ± 2.3", "unit": "J/K/mol"},
      {"measurement": "molar heat capacity at constant volume", "setting": "390 K, Mass density=971.9 kg/m3", "result": "113.14 ± 2.3 J/K/mol and 111.04 ± 2.2 J/K/mol"}
    ]}
  ]
}
